Test results reported in the CheMixHub ionic liquid set.
± gives the uncertainty stated by the source.

Assay: xn = mol fraction of the nth substance listed

CCCCCC(=O)[O-].C[NH2+]Cc1ccccc1 + CN(C)C=O
viscosity [mPa·s], 101 kPa
Details | 293.15 K | 298.15 K | 303.15 K | 308.15 K | 313.15 K | 318.15 K | 323.15 K | 328.15 K
x1 = 0.004888 | 0.957 ± 0.035 | 0.916 ± 0.035 | 0.879 ± 0.034 | 0.846 ± 0.034 | 0.817 ± 0.033 | 0.791 ± 0.033 | 0.767 ± 0.032 | 0.746 ± 0.032
x1 = 0.008422 | 0.969 ± 0.036 | 0.926 ± 0.035 | 0.887 ± 0.034 | 0.854 ± 0.034 | 0.824 ± 0.033 | 0.797 ± 0.033 | 0.772 ± 0.032 | 0.75 ± 0.032
x1 = 0.0141 | 0.992 ± 0.036 | 0.946 ± 0.035 | 0.905 ± 0.035 | 0.869 ± 0.034 | 0.837 ± 0.033 | 0.809 ± 0.033 | 0.784 ± 0.033 | 0.76 ± 0.032
x1 = 0.01792 | 1.009 ± 0.036 | 0.961 ± 0.035 | 0.918 ± 0.035 | 0.881 ± 0.034 | 0.847 ± 0.034 | 0.818 ± 0.033 | 0.791 ± 0.033 | 0.767 ± 0.032
x1 = 0.02131 | 1.026 ± 0.037 | 0.975 ± 0.036 | 0.93 ± 0.035 | 0.891 ± 0.034 | 0.857 ± 0.034 | 0.826 ± 0.033 | 0.798 ± 0.033 | 0.773 ± 0.032
x1 = 0.02717 | 1.052 ± 0.037 | 0.998 ± 0.036 | 0.95 ± 0.035 | 0.909 ± 0.035 | 0.873 ± 0.034 | 0.84 ± 0.033 | 0.812 ± 0.033 | 0.786 ± 0.033
x1 = 0.03049 | 1.072 ± 0.037 | 1.016 ± 0.036 | 0.966 ± 0.036 | 0.923 ± 0.035 | 0.884 ± 0.034 | 0.85 ± 0.034 | 0.82 ± 0.033 | 0.793 ± 0.033
x1 = 0.03458 | 1.099 ± 0.038 | 1.038 ± 0.037 | 0.985 ± 0.036 | 0.94 ± 0.035 | 0.899 ± 0.034 | 0.863 ± 0.034 | 0.831 ± 0.033 | 0.803 ± 0.033

CCCC[P+](c1ccccc1)(c1ccccc1)c1ccccc1.[Br-] + O=S=O + OCCO
100 kPa
Details | viscosity [mPa·s]
303.15 K, x2 = 0.01371, x3 = 0.9622 | 22 ± 0.9
313.15 K, x2 = 0.01059, x3 = 0.9653 | 18.4 ± 0.8
323.15 K, x2 = 0.008625, x3 = 0.9672 | 15.5 ± 0.7
333.15 K, x2 = 0.007346, x3 = 0.9684 | 12.9 ± 0.7
343.15 K, x2 = 0.005964, x3 = 0.9698 | 11.5 ± 0.5

CC(=O)[O-].[Na+] + O + CCCC[n+]1ccn(C)c1.N#C[S-]
Details | viscosity [mPa·s]
323.15 K, 101 kPa, x1 = 0.08925, x2 = 0.9088 | 2.515 ± 0.053

CCCCCCCC[n+]1ccccc1.[Br-] + O
100 kPa
Details | electrical conductivity [S/m]
288.15 K, x1 = 0.0006303 | 0.31 ± 0.1
288.15 K, x1 = 0.001206 | 0.47 ± 0.1
288.15 K, x1 = 0.001745 | 0.62 ± 0.11
288.15 K, x1 = 0.002301 | 0.78 ± 0.11
288.15 K, x1 = 0.00309 | 0.98 ± 0.1
288.15 K, x1 = 0.003806 | 1.12 ± 0.094
288.15 K, x1 = 0.004431 | 1.22 ± 0.09
288.15 K, x1 = 0.005002 | 1.29 ± 0.088
288.15 K, x1 = 0.005537 | 1.35 ± 0.089
288.15 K, x1 = 0.006018 | 1.4 ± 0.091
288.15 K, x1 = 0.006445 | 1.44 ± 0.092
288.15 K, x1 = 0.006854 | 1.48 ± 0.094
288.15 K, x1 = 0.007227 | 1.51 ± 0.095
288.15 K, x1 = 0.007547 | 1.54 ± 0.097
293.15 K, x1 = 0.0006303 | 0.34 ± 0.12
293.15 K, x1 = 0.001206 | 0.54 ± 0.12
293.15 K, x1 = 0.001745 | 0.7 ± 0.12
293.15 K, x1 = 0.002301 | 0.88 ± 0.12
293.15 K, x1 = 0.00309 | 1.11 ± 0.11
293.15 K, x1 = 0.003788 | 1.27 ± 0.11
293.15 K, x1 = 0.004431 | 1.39 ± 0.1
293.15 K, x1 = 0.005002 | 1.47 ± 0.1
293.15 K, x1 = 0.00552 | 1.54 ± 0.1
293.15 K, x1 = 0.006 | 1.59 ± 0.1
293.15 K, x1 = 0.006445 | 1.65 ± 0.11
293.15 K, x1 = 0.006837 | 1.69 ± 0.11
293.15 K, x1 = 0.00721 | 1.73 ± 0.11
293.15 K, x1 = 0.007547 | 1.76 ± 0.11
298.15 K, x1 = 0.0006303 | 0.38 ± 0.13
298.15 K, x1 = 0.001206 | 0.6 ± 0.14
298.15 K, x1 = 0.001745 | 0.79 ± 0.14
298.15 K, x1 = 0.002301 | 0.99 ± 0.14
298.15 K, x1 = 0.00309 | 1.25 ± 0.13
298.15 K, x1 = 0.003788 | 1.43 ± 0.12
298.15 K, x1 = 0.004431 | 1.57 ± 0.12
298.15 K, x1 = 0.005002 | 1.67 ± 0.12
298.15 K, x1 = 0.00552 | 1.75 ± 0.12
298.15 K, x1 = 0.006 | 1.81 ± 0.12
298.15 K, x1 = 0.006428 | 1.87 ± 0.12
298.15 K, x1 = 0.006837 | 1.93 ± 0.13
298.15 K, x1 = 0.00721 | 1.98 ± 0.14
298.15 K, x1 = 0.007529 | 2.02 ± 0.13
303.15 K, x1 = 0.0006303 | 0.45 ± 0.15
303.15 K, x1 = 0.001206 | 0.67 ± 0.14
303.15 K, x1 = 0.001745 | 0.88 ± 0.15
303.15 K, x1 = 0.002301 | 1.1 ± 0.15
303.15 K, x1 = 0.00309 | 1.39 ± 0.15
303.15 K, x1 = 0.003788 | 1.6 ± 0.14
303.15 K, x1 = 0.004413 | 1.75 ± 0.13
303.15 K, x1 = 0.004985 | 1.87 ± 0.13
303.15 K, x1 = 0.005502 | 1.98 ± 0.14
303.15 K, x1 = 0.005983 | 2.07 ± 0.14
303.15 K, x1 = 0.006428 | 2.14 ± 0.14
303.15 K, x1 = 0.006819 | 2.21 ± 0.14
303.15 K, x1 = 0.007192 | 2.27 ± 0.15
303.15 K, x1 = 0.007529 | 2.32 ± 0.15
308.15 K, x1 = 0.0006303 | 0.48 ± 0.16
308.15 K, x1 = 0.001206 | 0.73 ± 0.17
308.15 K, x1 = 0.001745 | 0.97 ± 0.17
308.15 K, x1 = 0.002283 | 1.21 ± 0.17
308.15 K, x1 = 0.003072 | 1.54 ± 0.16
308.15 K, x1 = 0.00377 | 1.77 ± 0.16
308.15 K, x1 = 0.004413 | 1.98 ± 0.16
308.15 K, x1 = 0.004985 | 2.13 ± 0.15
308.15 K, x1 = 0.005502 | 2.23 ± 0.15
308.15 K, x1 = 0.005983 | 2.33 ± 0.16
308.15 K, x1 = 0.00641 | 2.42 ± 0.16
308.15 K, x1 = 0.006819 | 2.49 ± 0.16
308.15 K, x1 = 0.007192 | 2.56 ± 0.17
308.15 K, x1 = 0.007512 | 2.62 ± 0.17
